Laboratory results taken from ChEMBL document CHEMBL3045901, “Aryldiones incorporating a [1,4,5]oxadiazepane ring. Part 2: chemistry and biology of the cereal herbicide pinoxaden” (Pest Manag Sci, 2011).
Values after ≈ are worked out from the molar mass of the structure shown.

Legend:
Triticum aestivum [1] = assay: Drug level in winter Triticum aestivum cv. Soisson (wheat) measured after 6 hr in presence of safener cloquintocet-mexyl; assay type: ADME, organism-based; conditions: in vivo
Triticum aestivum [2] = assay: Drug level in winter Triticum aestivum cv. Soisson (wheat) measured after 6 hr; assay type: ADME, organism-based; conditions: in vivo
Hordeum vulgare [3] = assay: Drug level in winter Hordeum vulgare cv. Manitou (barley) at 0.1 g/l measured after 6 hr in presence of safener cloquintocet-mexyl; assay type: ADME, organism-based; conditions: in vivo
Hordeum vulgare [4] = assay: Drug level in winter Hordeum vulgare cv. Manitou (barley) at 0.1 g/l measured after 6 hr; assay type: ADME, organism-based; conditions: in vivo
[5] = Aqueous hydrolysis of the compound at pH 9 at 20 degC; assay type: physicochemical; conditions: aqueous solution, read-out: DT50 (converted)
[6] = Aqueous hydrolysis of the compound at pH 4 at 20 degC; assay type: physicochemical; conditions: aqueous solution, read-out: DT50 (converted)
[7] = Aqueous hydrolysis of the compound at pH 5 at 20 degC; assay type: physicochemical; conditions: aqueous solution, read-out: DT50 (converted)
[8] = Aqueous hydrolysis of the compound at pH 7 at 20 degC; assay type: physicochemical; conditions: aqueous solution, read-out: DT50 (converted)
[9] = Lipophilicity, log P of the compound at 25 degC; assay type: physicochemical; conditions: octanol/water
[10] = Solubility in water at 25 degC; assay type: physicochemical
Avena fatua [11] = assay: Drug level in Avena fatua at 0.1 g/l measured after 6 hr in presence of safener cloquintocet-mexyl; assay type: ADME, organism-based; conditions: in vivo
Avena fatua [12] = assay: Drug level in Avena fatua at 0.1 g/l measured after 6 hr; assay type: ADME, organism-based; conditions: in vivo
Lolium perenne [13] = assay: Drug level in Lolium perenne (perennial ryegrass) measured at 0.1 g/l after 6 hr in presence of safener cloquintocet-mexyl; assay type: ADME, organism-based; conditions: in vivo
Lolium perenne [14] = assay: Drug level in Lolium perenne (perennial ryegrass) measured at 0.1 g/l after 6 hr; assay type: ADME, organism-based; conditions: in vivo
Hordeum vulgare [15] = assay: Drug metabolism in winter Hordeum vulgare cv. Manitou (barley) assessed as total inactive metabolites at 0.1 g/l measured after 16 hr; assay type: ADME, organism-based; conditions: in vivo

CCc1cc(C)cc(CC)c1-c1c(OC(=O)C(C)(C)C)n2n(c1=O)CCOCC2 [PINOXADEN]
Drug uptake (Triticum aestivum [1]): 0%
Drug uptake (Triticum aestivum [2]): 0%
Drug uptake (Hordeum vulgare [3]): 1.5%
Drug uptake (Hordeum vulgare [4]): 2.1%
half-life [5]: 0.3 days
half-life [6]: 24.1 days
half-life [7]: 25.3 days
half-life [8]: 14.9 days
logP [9]: 3.2
solubility [10]: 200 µg/mL (≈ 499 µM)
Drug uptake (Avena fatua [11]): 0%
Drug uptake (Avena fatua [12]): 0%
Drug uptake (Lolium perenne [13]): 0%
Drug uptake (Lolium perenne [14]): 0%
Drug metabolism (Hordeum vulgare [15]): 49.6%
